Measurements: US11382880B2, “Method for improving digestive health” (Brightseed, Inc., priority 2019, dated 2022)
Values belong to the compound of their own block, whether it stands above or below them.

How the values were obtained:
[1] = molecular target: T1, HNF4α (Homo sapiens, UniProt P41235); design: endogenous in cells; host or cells: T6PNE engineered pancreatic cells; conditions: Lee, et al. (2013); cited from earlier work
T1 sequence (P41235 1-474): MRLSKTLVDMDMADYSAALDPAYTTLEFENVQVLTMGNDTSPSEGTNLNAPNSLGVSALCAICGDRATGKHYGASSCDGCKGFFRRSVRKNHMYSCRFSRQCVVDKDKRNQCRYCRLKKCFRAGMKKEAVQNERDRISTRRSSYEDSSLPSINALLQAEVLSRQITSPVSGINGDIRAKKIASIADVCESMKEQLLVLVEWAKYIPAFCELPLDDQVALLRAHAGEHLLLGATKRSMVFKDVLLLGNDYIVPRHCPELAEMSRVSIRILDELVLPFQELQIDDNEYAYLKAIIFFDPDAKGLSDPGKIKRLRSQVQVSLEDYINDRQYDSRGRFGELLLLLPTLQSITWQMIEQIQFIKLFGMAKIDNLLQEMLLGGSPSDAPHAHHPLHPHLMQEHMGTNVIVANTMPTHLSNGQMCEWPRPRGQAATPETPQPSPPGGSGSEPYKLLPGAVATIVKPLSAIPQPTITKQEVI

[2] = test system: HNF4α mRNA; experiment: HNF4α mRNA levels by quantitative PCR; type: cell-based; conditions: FIG. 2
Method: FIG. 2 illustrates the effect of N-trans-caffeoyltyramine, N-trans-feruloyltyramine and p-coumaroyltyramine on HNF4α mRNA levels as determined by quantitative PCR. DMSO and alverine (20 μM) were used as negative and positive controls, respectively.
Expression of Insulin and HNF4α. RNA was purified using a RNEASY® chromatographic separation and isolation kits (Qiagen), and converted to cDNA using the gScript™ cDNA SuperMix (Quanta Biosciences). Q-PCR was conducted with cDNA corresponding to 2 μg of RNA using an Optic on Real-Time System (MJ Research) and QPCR SuperMix (BioPioneer). See All mRNA values were normalized to 18S rRNA values and are expressed as fold changes over vehicle-treated control.

[3] = molecular target: T1, HNF4α; experiment: Insulin promoter-reporter assay measuring HNF4α activity (T6PNE engineered pancreatic cell); type: cell-based; design: endogenous in cells; host or cells: T6PNE engineered pancreatic cells; conditions: for HNF4α modulator activity in screening: screening of predicted plant compounds in the HNF4α assay
Method: FIG. 1 illustrates a dose-response analysis of N-trans-caffeoyltyramine, N-trans-feruloyltyramine and p-coumaroyltyramine in an assay measuring insulin promoter activity. Dimethylsulfoxide (DMSO) and alverine (20 μM) were used as negative and positive controls, respectively.
The tyramine containing hydroxycinnamic acid amide of this disclosure are analogs of lead compounds identified in traditional screening assays for agents that modulate known signaling pathways. […] While not wishing to be bound by theory, it is believed that the tyramine containing hydroxycinnamic acid amides of this disclosure increase HNF4α activity as a result of higher affinity for the HNF4α binding site than the natural ligand, palmitic acid, which down regulates HNF4α activity. Accordingly, by increasing HNF4α activity, the compounds of this disclosure are of use in improving heal thy digestive function, thereby addressing the underlying pathogenesis of gastrointestinal disorders such as IBD, UC, and CD. Using the composition of this disclosure, health and well-being are improved and promoted.
Given the role of HNF4α in maintaining a healthy metabolism in humans, test compounds were screened for activity as HNF4α agonists (either direct or indirect effects). Using a known insulin promoter-reporter assay, Kiselyuk and colleagues (2010. J. Biomol. Screen 15(6): 663-70), screened a library of compounds for activity to promote insulin activation. […] The OTC promoter is known to be responsive to HNF4α in transient transfection assays (Inoue, et al. (2002) J. Biol. Chem. 277:25257-65).
Plant compounds in the top 10th percentile of similarity to the 18 target structures were selected and compounds predicted to be potential agonists of HNF4α activity given their chemical structural features were screened in the HNF4α assay. […] Due to hydroxyl derivatization of both phenyl rings, N-transcaffeoyltyramine is less lipophilic and therefore expected to be more bioavailable.

[4] = molecular target: T1, HNF4α; conditions: cited from earlier work
[5] = molecular target: T1, HNF4α; design: endogenous in cells; host or cells: T6PNE engineered pancreatic cells; conditions: Kiselyuk, et al. (2012); cited from earlier work
[6] = pH Stability Assessment; type: physicochemical; conditions: pH 2, 7.4, 8.5 and 10; 37° C.; 0.5 and 72 hours; HPLC peak area at 280 nm
Method: pH Stability Assessment. Individual stock solutions were prepared in DMSO at concentrations of 10 mg/mL. Four different buffer solutions were prepared to achieve solutions with a pH of 2, 7.4, 8.5 and 10. For each pH assay, 5 μL of stock solution was added to 245 μL of buffered solution to a 2 mL tube, vortexed and incubated in a 37° C. water bath. At each timepoint, 50 μL aliquots were taken, neutralized and analyzed via HPLC analysis using a DAD detector at 280 nm. The fold change of the peak area at 280 nm was analyzed for the initial and final timepoint, 0.5 and 72 hours, respectively.

[7] = Bioavailability determination in male C57BL/6 mice; type: in vivo; conditions: mouse, whole blood, IV 2.0 mg/kg, oral 30.0 mg/kg, IP 30 mg/kg, route of the printed value not stated
Method: Bioavailability Determinations. Male C57BL/6 mice were administered N-trans-caffeoyl tyramine or N-transferuloyl tyramine via IV, intraperitoneal or oral route (three mice for each route) (Table 2).
A blood sample from each mouse was drawn at 0.25, 0.5, 1, 2, 4, 6 and 24 hours after administration. An 8 μL aliquot of blood was used for analysis. After adding 200 μL of an internal standard comprising 100 ng/mL Labetalol, 100 ng/mL dexamethasone, 100 ng/mL tolbutamide, 100 ng/mL Verapamil, 100 ng/mL Glyburide, and 100 ng/mL Celecoxib in ACN, the mixture was vortex-mixed and centrifuged at 12000 rpm for 15 minutes at 4° C. to pellet precipitated protein. Four μL of the supernatant was injected for LC-MS/MS analysis. Bioavailability (%) was calculated using AUC0-inf (% AUCExtra<20%) or AUC0-last(% AUCExtra>20%) with nominal dose.

[8] = test system: CaCo-2 cells; experiment: TNF-α induced tight junction damage in CaCo-2 monolayer, ZO-1 staining; type: cell-based; conditions: 200 ng or 300 ng TNF-α
Method: TNF-α is an inflammatory cytokine that increases intestinal tight junction permeability. To analyze the effect of N-trans-caffeoyltyramine on tight junctions, 200 ng or 300 ng TNF-α was added to a monolayer of epithelial CaCo-2 cells to induced tight junction damage. After TNF-α exposure, N-trans-caffeoyltyramine was added and tight junction formation was determined by antibody staining for zonula occludens (ZO) −1. […] The CaCo-2 cells was sorted for high TNF-α expression with compromised integrity of tight junctions. Increasing concentration of exogenous TNF-α from 200 ng to 300 ng reduced ZO-1 staining.

[9] = test system: HNF4α; experiment: Intestinal HNF4α expression in C57BL/6 mice after IP dosing; type: in vivo; conditions: IP twice a day for 14 days
Method: Primary Antibodies. HNF4α antibodies were used (#sc-6556, Santa Cruz Biotechnology; Santa Cruz, Calif. and #3113, Cell Signaling Technology; Danvers, Mass.). For fluorescent imaging, samples were incubated with ALEXA FLUOR® 488 green-fluorescent dye or Rhodamine labeled anti-mouse, rabbit or goat and nuclei were counterstained with DAPI (4′,6-diamidino-2-phenylindole). […] were analyzed with a conventional inverted microscope (Olympus, PlanFl 40×/0.60) or with a confocal microscope equipped with a krypton/argon laser.
To confirm the in vivo […] samples were harvested and stained to visualize HNFα expression, ZO-1 and DAPI staining.

[10] = test system: HNF4α; experiment: HNF4α expression in the intestine of DIO mice; type: in vivo; conditions: villi and crypt
Source text: FIG. 4 illustrates HNF4α is increased in the intestine of DIO mice treated with NCT.
(§1) Intestine from mice treated with DMSO or N-trans-caffeoyltyramine were examined histologically. Gross morphological appearance was unchanged. […] In both, HNF4α was highly expressed in the crypt, with much less being detectable in the villi (see FIG. 4). […] Paneth cells are specialized secretory cells that play a critical role in defenses against intestinal microbes. To that end, they secrete a variety of antimicrobial peptides. Of note, Paneth cells play an important role in IBD pathogenesis. High fat diet has been reported to reduce the number of Paneth cells, and our studies reproduced that finding (see FIG. 4), but the mechanism by which that occurs has not been understood.

[11] = test system: Paneth cells; experiment: Number of Paneth cells in the intestine of DIO mice; type: in vivo; conditions: DIO mice (high fat diet)
Source text: FIG. 5 illustrates paneth cells are increased in the intestine of DIO mice treated with NCT.
as §1

[12] = test system: Intestine; experiment: Histological examination of intestine, gross morphology; type: in vivo; conditions: mice treated with DMSO or N-trans-caffeoyltyramine
Source text: as §1

SMILES: CCN(CCCc1ccccc1)CCCc1ccccc1 [Alverine]
Activity as HNF4α activators [1]: activity as HNF4α activators

SMILES: COc1cc(/C=C\C(=O)NCCc2ccc(O)cc2)ccc1O [cis-feruloyltyramine]
HNF4α gene expression (quantitative PCR) [2]: inactive

HNF4α modulator activity in screening [3]: able to act as HNF4α modulators
SMILES: O=C(/C=C\c1ccc(O)c(O)c1)NCCc1ccc(O)cc1 [N-cis-caffeoyltyramine]

SMILES: CCN(CCCCc1ccccc1)CCc1ccccc1 [compound 1]
HNF4α agonistic activity in OTC promoter assay [4]: HNF4α agonistic activity
Insulin activation in insulin promoter-reporter screen [5]: insulin activator

SMILES: COc1cc(/C=C/C(=O)NCC(O)c2ccc(O)cc2)ccc1O (stereo not drawn) [N-trans-feruloyloctopamine]
HNF4α gene expression (quantitative PCR) [2]: inactive

pH Stability [6]: Acid Stable
bioavailability [7]: ~11%
Gross morphological appearance of intestine [12]: unchanged
HNF4α modulator activity in screening [3]: able to act as HNF4α modulators
SMILES: O=C(/C=C/c1ccc(O)c(O)c1)NCCc1ccc(O)cc1 [N-trans-caffeoyltyramine]
HNF4α gene expression (quantitative PCR) [2]: upregulated
Effect on TNF-α reduced ZO-1 staining (tight junctions) [8]: reversed the effects of TNF-α on ZO-1
HNF4α expression in intestinal lining [9]: induced HNF4α expression in the intestinal lining
HNF4α expression in intestine [10]: large increase in HNF4α expression throughout
HNF4α expression in intestine ([10]; listed as NCT): increased
Number of Paneth cells [11]: complete recovery in the number of Paneth cells
Number of Paneth cells ([11]; listed as NCT): increased
Potency in activating HNF4α compared with Alverine ([3]; FIG. 1, alverine 20 μM positive control): roughly an order-of-magnitude more potent than Alverine

SMILES: O=C(/C=C/c1ccc(O)cc1)NCCc1ccc(O)c(O)c1 [N-coumaroyldopamine]
HNF4α gene expression (quantitative PCR) [2]: inactive

SMILES: O=C(/C=C/c1ccc(O)cc1)NCC(O)c1ccc(O)cc1 (stereo not shown) [pcoumaroyloctopamine]
HNF4α gene expression (quantitative PCR) [2]: inactive

SMILES: CC(Cc1cccc(C(F)(F)F)c1)NCCOC(=O)c1ccccc1 (stereo not shown) [Benfluorex]
Activity as HNF4α activators [1]: activity as HNF4α activators

pH Stability [6]: Stable
bioavailability [7]: ~7%
HNF4α modulator activity in screening [3]: able to act as HNF4α modulators
SMILES: COc1cc(/C=C/C(=O)NCCc2ccc(O)cc2)ccc1O [N-trans-feruloyltyramine]
HNF4α gene expression (quantitative PCR) [2]: upregulated

SMILES: O=C(/C=C/c1ccc(O)cc1)NCCc1ccc(O)cc1 [p-coumaroyltyramine]
HNF4α gene expression (quantitative PCR) [2]: upregulated
pH Stability [6]: Acid Stable
HNF4α modulator activity in screening [3]: able to act as HNF4α modulators
